Source: US9708359B2, “Pyrrolopyrimidine nucleosides and analogs thereof” (Chimerix, Inc., priority 2015, dated 2017)
Read-outs that look alike come from different tables or passages of the source.

How the values were obtained:
[1] = Parallel cytotoxicity assay in 293TT cells; type: cell-based; conditions: human, parallel to JCV assay
Procedure: Every antiviral assay included a parallel cytotoxicity assay with the same cells used for each virus, the same cell number, the same drug concentrations, and the same incubation times to provide the same drug exposure. To ensure that the cytotoxicity of all compounds could be compared directly, a standard neutral red uptake cytotoxicity assay for all compounds in confluent HFF cells with a 7 d incubation period was performed.

WNV = assay: microbe, parasite or virus in culture; type: cell-based; conditions: West Nile virus, Vero 76, Vero76 cells
HFF = HFF cells
HCV = assay: microbe, parasite or virus in culture; type: cell-based; conditions: Hepatitis C virus, Huh 7 cells
Procedure: Luciferase reporter (Replicon)/CytoTox-1 (Toxicity). Compounds were screened for anti-HCV activity using a luciferase (Luc) reporter gene endpoint in the HCV primary assay. The Luc reporter was used as an indirect measure of HCV replication as its activity is directly proportional to HCV RNA levels. Assessment of cytotoxicity is conducted in parallel. Drug stocks were prepared in DMSO unless otherwise specified and were diluted with tissue culture medium to the desired high-test concentration. For each assay, the compounds were then further diluted in tissue culture medium as required. After incubation, the cells were processed to derive, where applicable, EC50 and EC90 (compound concentration reducing replicon replication by 50% and 90% respectively). […] Anti-HCV activity was assessed with the replicon (genotype 1b or 2a) or HCVcc virus-derived Luc activity as readout; whereas the cytotoxic concentrations of drug reducing cell numbers was assessed by the CytoTox-1 cell proliferation assay according to manufacturer's protocol. […]
Luciferase reporter (Replicon)/CytoTox-1 (Toxicity). […] Anti-HCV activity was assessed with the replicon (genotype 1b or 2a) or HCVcc virus-derived Luc activity as readout; whereas the cytotoxic concentrations of drug reducing cell numbers was assessed by the CytoTox-1 cell proliferation assay (Promega, Madison, Wis.) according to manufacturer's protocol. […]

EBV = assay: DNA quantitation assay for EBV; type: cell-based, Epstein-Barr virus; conditions: human gammaherpesvirus 4, Akata cells
Procedure: DNA Quantitation Assays for EBV and HHV-6B:
Assays for EBV were performed in Akata cells that were induced to undergo a lytic infection with goat anti-human IgG antibody by standard methods. Experimental compounds were diluted in plates. Akata cells were added to the plates and incubated. For HHV-6, compounds were serially diluted then uninfected HSB-2 or Molt-3 cells were added to each well. Infection was initiated by adding HHV-6A infected HSB-2 cells, or HHV-6B infected Molt-3 cells, and incubated for 7 d at 37° C. For all assays, denaturation buffer was added to each well to denature the DNA and an aliquot was aspirated through a nylon membrane. The membranes were then allowed to dry before equilibration in DIG. Specific digoxigenin (DIG)-labeled probes were prepared for each virus according to the manufacturer's protocol. Detection of specifically bound DIG probe was performed with anti-DIG antibody using the manufacturer's protocol. An image of the photographic film was captured and quantified and compound concentrations sufficient to reduce the accumulation of viral DNA by 50% (EC50), were interpolated from the experimental data.
Assays for EBV were performed in Akata cells that were induced to undergo a lytic infection with 50 μg/mL of a goat anti-human IgG antibody by standard methods. […]

VEEV = assay: microbe, parasite or virus in culture; type: cell-based; conditions: Venezuelan equine encephalitis virus, Vero 76

## Cc1nc(N)c2c(C(N)=O)cn([C@@H]3O[C@H](CO)[C@@H](O)[C@H]3O)c2n1 [Compound 1, 4-amino-7-((2R,3R,4S,5R)-3,4-dihydroxy-5-(hydroxymethyl)tetrahydrofuran-2-yl)-2-methyl-7H-pyrrolo[2,3-d]pyrimidine-5-carboxamide]
[1]
  CC50: > 60 µM
WNV
  EC50: > 100 µM
HFF; parallel to BKV assay
  CC50: > 60 µM
HFF; parallel to HSV-2 assay
  CC50: > 60 µM
HFF; parallel to VACV assay
  CC50: > 60 µM
HFF; parallel to VZV assay
  CC50: > 60 µM
HCV
  EC50: 18.4 µM
EBV
  EC50: 7.15 µM
VEEV
  EC50: > 100 µM
